From PMC8413292, “Small-molecule polymerase inhibitor protects non-human primates from measles and reduces shedding” (Nature Communications, 2021)
“And” between values parts separate entries of the source, which are not always exact repeats. Identical values can stand only once.

Experiments:
MeV N gene RNA = assay: Quantitative RT-PCR of MeV N-gene RNA in lymph nodes; assay type: in vivo; details: for MeV N-gene RNA levels in lymph nodes versus untreated: 21 days post-infection
Procedure: Organs (21 days post-infection) and PBMCs (twice a week) were frozen in RNAlater (Qiagen) at −80 °C until further processing. For the deceased animal, organs were frozen in RNAlater at the day of death. Lymph nodes were thawed on ice, transferred to TRIzol (ambion life technologies) and homogenized using a tissue homogenizer. Total RNA of lymph nodes and PBMCs was extracted following the TRIzol manufacturer’s protocol. RNA (1000 ng for lymph nodes; 110 ng for PBMCs) was then subjected to reverse transcription using random hexamer primers and Superscript III reverse transcriptase in accordance with the manufacturer’s protocols. Subsequent quantitative PCR (qPCR) was carried out using primer pairs specific for a fragment in the MeV N gene[23] or GAPDH gene(Supplementary Table 2) and the PowerUp SYBR Green Master Mix (Thermo Fisher Scientific) in an Applied Biosystems 7500 Real-Time PCR system. Samples were normalized for GAPDH. The comparative (ΔΔCt) Ct method was applied to determine relative amounts of N-encoding RNA present in samples from treated animals compared to those obtained from untreated control animals (lymph nodes) or compared to those obtained from untreated control animals on day 7 post-infection (peak PBMC virus titer).

[1] = tested on: MeV/NewJersey.USA/94/1 (genotype D6); assay: PK and PD recapitulation ex vivo in MeV-infected human PBMCs, progeny virus titer (TCID50); assay type: cell-based, Measles virus in human PBMCs; details: for Virus titers: hPBMCs, individual repeats; for Mean, Transform of Virus Titer: n = 4
Procedure: Human peripheral blood mononuclear cells (hPBMCs) were infected (MOI = 0.1 TCID50 units per cell) in a 24-well plate format with MeV/NewJersey.USA/94/1 (genotype D6) in the presence of ERDRP-0519 or DMSO (0.1%). […] Cells were collected 48 h after infection and virus was subsequently harvested after two freeze thaw cycles. Released virus titers were then determined by limited dilution method (TCID50) on Vero/hSLAM cells. Four biological repeats were used for each ex vivo PK recapitulation and three biological repeats were used for DMSO-treated hPBMCs.
PK and PD recapitulation in human blood mononuclear cells
To test whether viral replication in […]
circumstances, we performed an in vitro recapitulation experiment. For this, we infected human PBMCs in a 24-well plate format with MeV/NewJersey.USA/94/1 (genotype D6) at a multiplicity of infection of 0.1 TCID 50 units per cell. To mimic the ERDRP-0519 serum concentration profile in vitro , we adjusted the drug concentrations in our PBMC cultures multiple times during the incubation period as shown by the colored areas in Fig. 1c (recapitulating a once per day treatment regimen, q.d.) and Fig. 1d (recapitulating a twice daily treatment regimen, b.i.d.) and summarized in Supplementary Table 3. The concentration changes were applied for a total of 48 h to the infected PBMC cultures (a total of two cycles of the q.d. regimen and four cycles of the b.i.d. regimen, assuming no drug accumulation during repeated treatment). As controls, infected PBMCs were incubated in the presence of vehicle only (0.1 % DMSO) or with a constant concentration of 1.5 µM of ERDRP-0519 over the whole period of 48 h post infection. Cells were collected 48 hours after infection and virus was subsequently harvested after two freeze thaw cycles. Released virus titers were then determined by limited dilution method (TCID 50) on Vero/hSLAM cells (Fig. 1e). Four biological repeats were used for each ex vivo PK recapitulation and three biological repeats were used for DMSO-treated hPBMCs.

Cn1nc(C(F)(F)F)cc1C(=O)Nc1ccc(S(=O)(=O)N2CCCC[C@H]2CCN2CCOCC2)cc1 [ERDRP-0519]
Lymph node fold difference, group mean (Mean 2) (MeV N gene RNA; prophylactic): 0.06859
fold difference (Lymph node MeV N RNA), individual animals (MeV N gene RNA; prophylactic): 0.002631 and 0.0102 and 0.1018 and 0.01292 and 0.2776 and 0.00638
MeV N-gene RNA levels in lymph nodes versus untreated (MeV N gene RNA; prophylactic group, p = 0.0295): significantly decreased
Lymph node fold difference, group mean (Mean 2) (MeV N gene RNA; therapeutic (d3)): 0.1137
fold difference (Lymph node MeV N RNA), individual animals (MeV N gene RNA; therapeutic (d3)): 0.5644 and 0.005805 and 0.02288 and 0.01111 and 0.0007117 and 0.07727
Lymph node fold difference, group mean (Mean 2) (MeV N gene RNA; therapeutic (d7)): 0.7008
fold difference (Lymph node MeV N RNA), individual animals (MeV N gene RNA; therapeutic (d7)): 1.441 and 0.8274 and 0.2474 and 0.8349 and 0.2786 and 0.5749
MeV N-gene RNA levels in lymph nodes versus untreated (MeV N gene RNA; therapeutic day 3 group, p = 0.0346): significantly decreased
Lymph node fold difference, Mean Diff, (MeV N gene RNA; untreated vs. prophylactic): 1.828
Lymph node fold difference, Mean Diff, (MeV N gene RNA; untreated vs. therapeutic (d3)): 1.783
Lymph node fold difference, Mean Diff, (MeV N gene RNA; untreated vs. therapeutic (d7)): 1.196
reduction in progeny virus titer ([1]; continuous exposure of MeV-infected hPBMCs to 1.5 µM, 48 h): greater than three orders of magnitude reduction
Virus titers ([1]; 48 h, b.i.d. 50 mg/kg simulated profile): 1.80E+02 TCID50/10^6 PBMCs and 3.21E+02 TCID50/10^6 PBMCs and 4.27E+02 TCID50/10^6 PBMCs and 7.60E+01 TCID50/10^6 PBMCs
Virus titers ([1]; 48 h, constant 1.5 μM): 7.60E+01 TCID50/10^6 PBMCs and 5.70E+01 TCID50/10^6 PBMCs and 4.27E+01 TCID50/10^6 PBMCs
Virus titers ([1]; 48 h, q.d. 50 mg/kg simulated profile): 1.80E+03 TCID50/10^6 PBMCs and 2.40E+03 TCID50/10^6 PBMCs and 3.21E+03 TCID50/10^6 PBMCs and 1.35E+03 TCID50/10^6 PBMCs
Mean, Transform of Virus Titer ([1]; once daily recapitulation): 3.318
Mean Diff., Transform of Virus Titer ([1]; once daily vs. trough): 1.531
Mean Diff., Transform of Virus Titer ([1]; once daily vs. twice daily): 0.9998
Mean Diff., Transform of Virus Titer ([1]; once daily vs. vehicle): -1.854
progeny MeV titers versus untreated controls ([1]; q.d. and b.i.d. regimen recapitulated ex vivo in hPBMCs, 48 h): significantly (p < 0.0001) lower than in untreated controls
Mean, Transform of Virus Titer ([1]; trough (constant 1.5 µM)): 1.787
Mean Diff., Transform of Virus Titer ([1]; trough vs. vehicle): -3.385
Mean, Transform of Virus Titer ([1]; twice daily recapitulation): 2.318
Mean Diff., Transform of Virus Titer ([1]; twice daily vs. trough): 0.5313
Mean Diff., Transform of Virus Titer ([1]; twice daily vs. vehicle): -2.853
